Measured values taken from patent publication US11466032B2, “Cytotoxic agents” (FEMTOGENIX LIMITED, priority 2017, dated 2022).

Columns and labels:
[1] = test system: linear 32P-end-labelled HexA DNA; test: DNA interstrand cross-linking assay (denaturing polyacrylamide gel); format: biochemical; settings: overnight incubation at 37° C.
Method: The ability of 26 and 34 to cross-link DNA was determined using an assay involving linear double-stranded HexA. TyrT and MS1 DNA fragments (FIG. 5).
Following denaturation conditions (treatment with formamide and heating at 65° C. for 5 min) the DNA strands were completely separated (see control C2, FIG. 6). The presence of an interstrand cross-link holds the denatured strands in close proximity, and cross-linked adducts therefore run as double-stranded DNA on polyacrylamide gel. Talirine and 34 were tested at >10 different concentrations, and the assay was repeated twice. […] C1 and C2 represent controls where C1 is DNA without formic acid, and C2 is DNA without formic acid, but heated thereby forming single strands. Cross-links are clearly detectable at concentrations as low as 10 nM. Using the same assay, the PBD dimer Talirine was also shown to cross-link DNA down to a concentration of 10 nM (FIG. 7).
The preparation of the DNA fragments (FIG. 5) has been previously described^[4]. Briefly, the sequence which had been cloned into the BamHI site of pUC18 was obtained by cutting with HindIII and EcoRI. Radiolabelled DNA fragments were prepared by filling in the 3′-end of the HindIII site with [α-^32P]dATP using Klenow DNA polymerase (exo-).
The radiolabelled DNA fragment was separated from the remainder of the plasmid DNA on a 6% non-denaturing polyacrylamide gel. […]

[2] = test system: HexA and MS1 DNA fragments; test: DNA footprinting; format: binding; settings: X is any base, Y is G or C, W is A or T; overnight incubation
Method: The sequence selectivity of 26 and 34 was investigated using a modification of the previously established DNA footprinting assay^25. Following an overnight incubation of the ligand-DNA complexes, the mixture was mixed with strand separation buffer containing 10 mM EDTA, 10 mM NaOH, 0.1% bromophenol blue, 80% formamide and incubated at 100° C. for 3 min. The mixture was then immediately cooled on ice and run on an 8% denaturing gel.
Footprinting reactions were performed as previously described^[5] using the DNA fragments HexA and HexB, which together contain all 64 symmetrical hexanucleotide sequences^[6], and MS1 that contains all possible […] tetranucleotide sequences^[7]. The DNA fragments were obtained by cutting the parent plasmids with HindIII and SacI (for HexA and MS1) or EcoRI and PstI (for HexB), and were labelled at the 3′-end of the HindIII or EcoRI sites with [α-^32P]dATP using reverse transcriptase or exo-Klenow fragment. After gel purification, the radiolabelled DNA was dissolved in 10 mM Tris-HCl pH 7.5 containing 0.1 mM EDTA, at a concentration of about 10 c.p.s per μL as determined on a hand held Geiger counter. 1.5 μL of radiolabelled DNA was mixed with 1.5 μL ligand that had been freshly diluted in 10 mM Tris-HCl pH 7.5, containing 10 mM NaCl. […]

Compound: CNS(=O)(=O)c1ccc(C2=CCN3C(=O)c4cc(OC)c(OCc5cccc(COc6cc7c(cc6OC)C(=O)N6CC=C(c8ccc(S(=O)(=O)NC)cc8)C[C@H]6C=N7)n5)cc4N=C[C@@H]3C2)cc1 [Compound 34, 4,4′-((6aS,6a′S)-((Pyridine-2,6-diylbis(methylene))bis(oxy))bis(2-methoxy-12-oxo-6a,7,10,12-tetrahydrobenzo[e]pyrido[1,2-α][1,4]diazepine-3,8-diyl))bis(N-methylbenzenesulfonamide)]
- lowest concentration at which DNA interstrand cross-links are detectable [1]: 10 nM
- general code of the footprints (preferred binding sites) [2]: XYWWYWYX
